Reference: patent US10952435B2, “Pyridine-2-carboxamides as nematocides” (SYNGENTA PARTICIPATIONS AG, priority 2013, dated 2021)

Row | melting point | Structure (SMILES)
1 | 95 °C | O=C(NCCc1ccc(C(F)(F)F)cc1F)c1ncccc1C(F)(F)F [A.001, 3-Trifluoromethyl-pyridine-2-carboxylic acid [2-(2-fluoro-4-trifluoromethyl-phenyl)-ethyl]-amide]
2 | 69 °C | O=C(NCCc1ccc(Cl)cc1F)c1ncccc1C(F)(F)F [A.002, 3-Trifluoromethyl-pyridine-2-carboxylic acid [2-(4-chloro-2-fluoro-phenyl)-ethyl]-amide]
3 | 78 °C | O=C(NCCc1ccc(F)cc1F)c1ncccc1C(F)(F)F [A.005]
4 | 117 to 118 °C | Cc1cccnc1C(=O)NCC(F)(F)c1ccc(Cl)cc1Cl [A.009, N-[2-(2,4-dichlorophenyl)-2,2-difluoro-ethyl]-3-methyl-pyridine-2-carboxamide]
